PubChem BioAssay (NCI)
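Values below derive from 48-hour exposures of cells grown in 96-well plates, with endpoints linearly interpolated between the two concentrations bracketing the appropriate inhibition level. Abbreviation: GI50, concentration required for 50% inhibition of growth. Definition used: TGI = concentration required for complete inhibition of growth.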

What was measured:
Experiment in all cases: DTP human tumour cell line panel, 48 h
[1] = test system: SF-539 CNS
[2] = test system: NCI-H23 lung
[3] = test system: HOP-92 NSCLC
[4] = test system: HCC-2998 colon
[5] = test system: KM12 colon
[6] = test system: SN12C renal
[7] = test system: SK-OV-3 ovarian
[8] = test system: NCI-H522 lung
[9] = test system: COLO 205 colon
[10] = test system: U251 CNS

## CC(C)C(=O)NS(=O)(=O)c1ccccc1
[1]
  TGI: > 100 µM
[2]
  TGI: > 100 µM
[3]
  TGI: > 100 µM
[4]
  TGI: > 100 µM
[5]
  TGI: > 100 µM
[6]
  TGI: > 100 µM
[7]
  TGI: > 100 µM
[8]
  TGI: > 100 µM
[9]
  TGI: > 100 µM
[10]
  TGI: > 100 µM

## CSc1ccc2c(c1)C(=O)c1c-2n(CCCBr)c(=O)c2cc([N+](=O)[O-])ccc12
[1]
  GI50: 4.59 µM
  TGI: > 100 µM
[2]
  GI50: 8.03 µM
  TGI: > 100 µM
[3]
  GI50: 0.356 µM
  TGI: 10.3 µM
[4]
  GI50: 74.4 µM
  TGI: > 100 µM
[5]
  GI50: 46.1 µM
  TGI: > 100 µM
[6]
  GI50: 0.893 µM
  TGI: 6.95 µM
[7]
  GI50: 12.1 µM
  TGI: > 100 µM
[8]
  GI50: 5.32 µM
  TGI: 97.4 µM
[9]
  GI50: 17.8 µM
  TGI: > 100 µM
[10]
  GI50: 1.98 µM
  TGI: > 100 µM

## NC(=O)c1cc(S(=O)(=O)Nc2nnc(-c3ccccc3)c(-c3ccccc3)n2)c(SCc2ccccc2)cc1Cl
[1]
  GI50: > 44.3 µM
  TGI: > 63.9 µM
[2]
  GI50: > 72.3 µM
  TGI: > 100 µM
[3]
  GI50: > 100 µM
  TGI: > 100 µM
[4]
  GI50: > 100 µM
  TGI: > 100 µM
[5]
  GI50: > 62.6 µM
  TGI: > 100 µM
[6]
  GI50: > 50.8 µM
  TGI: > 82.6 µM
[7]
  GI50: > 74.7 µM
  TGI: > 100 µM
[8]
  GI50: > 44 µM
  TGI: > 68.3 µM
[9]
  GI50: > 100 µM
  TGI: > 100 µM
[10]
  GI50: > 55.6 µM
  TGI: > 100 µM

## C=C1C(=O)OC2CC(C)C3(O)CCC(=O)C3(C)CC12 (stereo not given)
[1]
  TGI: 32.7 µM
[2]
  TGI: > 100 µM
[3]
  TGI: > 100 µM
[4]
  TGI: 50 µM
[5]
  TGI: 42.6 µM
[6]
  TGI: 48.8 µM
[7]
  TGI: > 100 µM
[8]
  TGI: 30.3 µM
[9]
  TGI: > 100 µM
[10]
  TGI: > 100 µM

## COc1ccc(-c2ccc(-c3ccc(C(=N)N)s3)s2)cc1
[1]
  GI50: 0.188 µM
  TGI: 0.346 µM
[2]
  GI50: 0.264 µM
  TGI: 0.66 µM
[3]
  GI50: 1.16 µM
  TGI: 2.71 µM
[4]
  GI50: 0.273 µM
  TGI: 0.699 µM
[5]
  GI50: 0.19 µM
  TGI: 0.357 µM
[6]
  GI50: 0.205 µM
  TGI: 0.465 µM
[7]
  GI50: 2.14 µM
  TGI: 4.3 µM
[8]
  GI50: 0.264 µM
  TGI: 1.2 µM
[9]
  GI50: 0.309 µM
  TGI: 0.916 µM
[10]
  GI50: 0.179 µM
  TGI: 0.337 µM

## O=[N+]([O-])c1ccc(N2N=C(c3ccc(NCc4nc5ccccc5[nH]4)cc3)CC2c2ccco2)cc1 (stereo not given)
[1]
  TGI: 84.4 µM
[2]
  TGI: 55.9 µM
[3]
  TGI: > 100 µM
[4]
  TGI: 94.1 µM
[5]
  TGI: 41.4 µM
[6]
  TGI: 61.9 µM
[7]
  TGI: > 100 µM
[8]
  TGI: 54 µM
[9]
  TGI: 77.9 µM
[10]
  TGI: > 100 µM

## Cc1cc(S(=O)(=O)O)c(NC(=O)C(=O)Cc2cc(=O)oc3cc(O)ccc23)cc1Cl
[1]
  TGI: > 100 µM
[2]
  TGI: > 100 µM
[3]
  TGI: > 100 µM
[4]
  TGI: > 100 µM
[5]
  TGI: > 100 µM
[6]
  TGI: > 100 µM
[7]
  TGI: > 100 µM
[8]
  TGI: > 100 µM
[9]
  TGI: > 100 µM
[10]
  TGI: > 100 µM

## CCN(Cc1ccccc1C)c1ccc(CO)c(Cl)c1
[1]
  GI50: 15 µM
  TGI: 29.5 µM
[2]
  GI50: 12.8 µM
  TGI: 38 µM
[3]
  GI50: 1.83 µM
  TGI: 9.14 µM
[4]
  GI50: 14.4 µM
  TGI: 30.6 µM
[5]
  GI50: 11.8 µM
  TGI: 26.6 µM
[6]
  GI50: 12.5 µM
  TGI: 25.9 µM
[7]
  GI50: 13.7 µM
  TGI: 31.5 µM
[8]
  GI50: 13.4 µM
  TGI: 28.8 µM
[9]
  GI50: 13.3 µM
  TGI: 28.2 µM
[10]
  GI50: 2.84 µM
  TGI: 17.1 µM

## CN[C@@H](C)[C@@H](NC)c1ccccc1
[1]
  TGI: > 100 µM
[2]
  TGI: > 100 µM
[3]
  TGI: > 100 µM
[4]
  TGI: > 100 µM
[5]
  TGI: > 100 µM
[6]
  TGI: > 100 µM
[7]
  TGI: > 100 µM
[8]
  TGI: > 100 µM
[9]
  TGI: > 100 µM
[10]
  TGI: 2.9 µM
